One test is described as follows: cells. The note with it: Homo sapiens, CRL8155.
The next test has as its system Toxoplasma gondii. Nature of the test: Antiparasitic activity against Toxoplasma gondii up to 1 uM. The test is classed as functional, organism-based.
For a further test, the system named is Cryptosporidium parvum. The test can be described thus: Antiparasitic activity against Cryptosporidium parvum up to 1 uM. Format: functional, organism-based.
Test [1] is described as follows: Inhibition of Cryptosporidium parvum CDPK1.
Test [2] deals with T1, Calmodulin-domain protein kinase 1 (Toxoplasma gondii, UniProt Q9BJF5).
T1 sequence (Q9BJF5 whole entry): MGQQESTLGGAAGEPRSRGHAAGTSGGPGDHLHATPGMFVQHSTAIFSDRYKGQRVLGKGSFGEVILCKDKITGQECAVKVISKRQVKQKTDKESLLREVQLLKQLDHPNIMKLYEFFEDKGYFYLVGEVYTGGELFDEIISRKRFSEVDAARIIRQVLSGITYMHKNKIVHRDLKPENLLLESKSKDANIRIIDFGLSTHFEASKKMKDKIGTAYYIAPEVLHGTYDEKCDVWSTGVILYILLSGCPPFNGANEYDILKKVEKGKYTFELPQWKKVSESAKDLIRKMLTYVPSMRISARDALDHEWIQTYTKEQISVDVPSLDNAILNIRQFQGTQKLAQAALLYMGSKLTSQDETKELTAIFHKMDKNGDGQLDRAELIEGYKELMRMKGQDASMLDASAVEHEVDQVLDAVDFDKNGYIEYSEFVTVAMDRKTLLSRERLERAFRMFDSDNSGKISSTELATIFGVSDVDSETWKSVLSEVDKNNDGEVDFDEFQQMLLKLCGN
The test can be described thus: Inhibition of Toxoplasma gondii CDPK1.

Another test relates to HL-60. The test can be described thus: cells. Conditions: Homo sapiens.

Active and inactive are the calls of the source. The rule behind the calls is not given here. Where only a bound is given, the exact number is not on record here.

Description for HL-60: Cytotoxicity against human HL60 cells after 48 to 72 hrs by Alamar blue assay

As for `Nc1nc2ccc(C(=O)c3ccccc3)cc2n1C[C@H]1CCCN1`, the EC50 in “cells” and with HL-60 was more than 30000 nM throughout. The outcome with Toxoplasma gondii and in the test on Cryptosporidium parvum was inactive. Moreover, the IC50 in test [1] stood at 870 nM; in test [2], 1000 nM.

For the compound `NCCCCNC(=O)Nc1nc2ccc(C(=O)c3ccccc3)cc2[nH]1`, the EC50 in the test “cells” and in the test with HL-60 was more than 30000 nM each time. Also, the outcome with Toxoplasma gondii and in the test on Cryptosporidium parvum was inactive. For the same compound, the IC50 in test [1] amounted to 150 nM; in test [2], 140 nM.

For the compound `NCCCCCCC(=O)Nc1nc2ccc(C(=O)c3ccccc3)cc2[nH]1`, the EC50 in “cells” and in the test on HL-60 was more than 30000 nM in each case. In addition, the result in the test on Toxoplasma gondii and in the test with Cryptosporidium parvum was inactive. Besides, the IC50 was 72 nM in test [1] and 22 nM in test [2].

Turning to `CC(C)Cn1c(N)nc2ccc(C(=O)c3ccccc3)cc21`, the EC50 in “cells” and in the test with HL-60 was more than 30000 nM throughout. Also, the outcome in the test with Toxoplasma gondii and in the test on Cryptosporidium parvum was inactive. Moreover, the IC50 in test [1] came out at 230 nM; in test [2] it was 67 nM.

In the case of `O=C(NCCC1CCCNC1)Nc1nc2ccc(C(=O)c3ccccc3)cc2[nH]1` (stereo not given), the EC50 in “cells” and in the test on HL-60 was more than 30000 nM in each case. Besides, the result in the test on Toxoplasma gondii and in the test with Cryptosporidium parvum was inactive. Further, the IC50 in test [1] is 160 nM; in test [2] it was 120 nM.

For the compound `CN1CCN(CCCn2c(N)nc3ccc(C(=O)c4ccccc4)cc32)CC1`, the EC50 in the test “cells” and with HL-60 was more than 30000 nM each time. For the same compound, the outcome in the test with Toxoplasma gondii and with Cryptosporidium parvum was inactive. Also, the IC50 in test [1] worked out at 170 nM; in test [2] it was 180 nM.

Take `N[C@@H](Cc1ccc(O)cc1)C(=O)Nc1nc2ccc(C(=O)c3ccccc3)cc2[nH]1`: the EC50 in “cells” and in the test on HL-60 was more than 30000 nM each time. Moreover, the result in the test with Toxoplasma gondii and with Cryptosporidium parvum was inactive. Moreover, the IC50 in test [1] is 1410 nM; in test [2] it was 520 nM.

Consider `Nc1nc2ccc(C(=O)c3ccccc3)cc2n1C[C@H]1CCNC1`, for which the EC50 in the test “cells” and in the test with HL-60 was more than 30000 nM throughout. The outcome with Toxoplasma gondii and in the test with Cryptosporidium parvum was inactive. Besides, the IC50 in test [1] and in test [2] was 120 nM in each case.

In the case of `Nc1nc2ccc(C(=O)c3ccccc3)cc2n1CCc1ccccn1`, the EC50 in the test “cells” and in the test with HL-60 was more than 30000 nM in each case. Also, the result in the test with Toxoplasma gondii and in the test on Cryptosporidium parvum was inactive. For the same compound, the IC50 worked out at 830 nM in test [1] and 260 nM in test [2].

`O=C(NCCO)Nc1nc2cc(C(=O)c3ccccc3)ccc2[nH]1`: the EC50 in the test “cells” and in the test with HL-60 was more than 30000 nM each time. The outcome in the test on Toxoplasma gondii and in the test on Cryptosporidium parvum was inactive. In test [1], this compound displayed an IC50 of 180 nM.

In the case of `Nc1nc2ccc(C(=O)c3ccccc3)cc2n1CCN1CCOCC1`, the EC50 in “cells” and with HL-60 was more than 30000 nM each time. Besides, the result in the test with Toxoplasma gondii and in the test with Cryptosporidium parvum was inactive. The IC50 in test [1] came to 390 nM; in test [2] it was 220 nM.

Take `Nc1nc2ccc(C(=O)c3ccccc3)cc2n1CC[C@H]1CCCN1`: the EC50 in “cells” and in the test with HL-60 was more than 30000 nM each time. In addition, the result with Toxoplasma gondii and in the test with Cryptosporidium parvum was inactive. Also, the IC50 in test [1] was determined as 95 nM; in test [2], 65 nM.

In the case of `CN1CCC[C@H]1CCn1c(N)nc2ccc(C(=O)c3ccccc3)cc21`, the EC50 in “cells” and with HL-60 was more than 30000 nM in each case. Further, the outcome with Toxoplasma gondii and with Cryptosporidium parvum was inactive. The IC50 in test [1] came to 71 nM; in test [2], 68 nM.

Take `COC(=O)Nc1nc2ccc(C(O)c3ccccc3)cc2[nH]1` (stereo not given): the IC50 in test [1] and in test [2] was more than 3000 nM in each case.

On to `NCCCC(=O)Nc1nc2ccc(C(=O)c3ccccc3)cc2[nH]1`, for which the EC50 in “cells” and in the test on HL-60 was more than 30000 nM in each case. Besides, the outcome in the test on Toxoplasma gondii and in the test on Cryptosporidium parvum was inactive. Moreover, the IC50 was found to be 91 nM in test [1] and 69 nM in test [2].

With `Nc1nc2ccc(C(=O)c3ccccc3)cc2n1CCN1CCCCC1`, the 50% effective concentration (EC50) in “cells” and in the test with HL-60 was more than 30000 nM throughout. The outcome in the test on Toxoplasma gondii and in the test with Cryptosporidium parvum was inactive. In addition, the IC50 in test [1] is 300 nM; in test [2], 160 nM.

Regarding `N[C@@H](Cc1c[nH]cn1)C(=O)Nc1nc2ccc(C(=O)c3ccccc3)cc2[nH]1`, the EC50 in the test “cells” and in the test with HL-60 was more than 30000 nM in each case. Further, the result in the test with Toxoplasma gondii and in the test with Cryptosporidium parvum was inactive. Besides, the IC50 in test [1] amounted to 320 nM; in test [2], 140 nM.

In turn, `O=C(NCCO)Nc1nc2ccc(C(=O)c3ccccc3)cc2[nH]1` had an IC50 in test [2] of 130 nM.

On to `CN1CCC(Cn2c(N)nc3ccc(C(=O)c4ccccc4)cc32)CC1`, for which the EC50 in “cells” and in the test on HL-60 was more than 30000 nM throughout. For the same compound, the outcome in the test on Toxoplasma gondii and with Cryptosporidium parvum was inactive. The IC50 in test [1] was 260 nM; in test [2], 150 nM.

With `O=C(c1ccccc1)c1ccc2nc(NCCO)[nH]c2c1`, the EC50 in the test “cells” and in the test with HL-60 was more than 30000 nM throughout. Besides, the result in the test on Toxoplasma gondii and in the test with Cryptosporidium parvum was inactive. The IC50 in test [1] and in test [2] was more than 3000 nM each time.

For `O=C(CCC1CCNCC1)Nc1nc2ccc(C(=O)c3ccccc3)cc2[nH]1`, the EC50 in “cells” and in the test with HL-60 was more than 30000 nM in each case. Moreover, the result in the test on Toxoplasma gondii and in the test with Cryptosporidium parvum was inactive. The IC50 in test [1] was found to be 110 nM; in test [2] it was 41 nM.

In the case of `O=C(c1ccccc1)c1ccc2nc(NC(=O)[C@@H]3CCCN3)[nH]c2c1`, the EC50 in “cells” and with HL-60 was more than 30000 nM in each case. Besides, the outcome with Toxoplasma gondii and in the test on Cryptosporidium parvum was inactive. The IC50 in test [1] was determined as 130 nM; in test [2] it was 160 nM.

With `NCCC(=O)Nc1nc2ccc(C(=O)c3ccccc3)cc2[nH]1`, the EC50 in “cells” and with HL-60 was more than 30000 nM each time. For the same compound, the result in the test on Toxoplasma gondii and with Cryptosporidium parvum was inactive. Besides, the IC50 stood at 130 nM in test [1] and 180 nM in test [2].

In the case of `COC(=O)Nc1nc2cc(C(=O)c3ccccc3)ccc2[nH]1` [MEBENDAZOLE], the EC50 in the test “cells” and in the test on HL-60 was more than 30000 nM in each case. In addition, the result in the test on Toxoplasma gondii and in the test on Cryptosporidium parvum was inactive. The compound also returned an IC50 in test [1] of 920 nM.

For `O=C(NCCCCO)Nc1nc2ccc(C(=O)c3ccccc3)cc2[nH]1`, the EC50 in the test “cells” and in the test on HL-60 was more than 30000 nM each time. Further, the outcome in the test on Toxoplasma gondii and in the test on Cryptosporidium parvum was inactive. In addition, the concentration for half-maximal inhibition (IC50) in test [1] is 590 nM; in test [2], 380 nM.

`O=C(CC1CCNCC1)Nc1nc2ccc(C(=O)c3ccccc3)cc2[nH]1`: the EC50 in “cells” and with HL-60 was more than 30000 nM in each case. Further, the outcome in the test on Toxoplasma gondii and with Cryptosporidium parvum was inactive. Moreover, the IC50 in test [1] worked out at 120 nM; in test [2], 60 nM.

On to `O=C(c1ccccc1)c1ccc2nc(NCCC3CCCNC3)[nH]c2c1` (stereo not given), for which the EC50 in the test “cells” and in the test with HL-60 was more than 30000 nM each time. For the same compound, the outcome in the test with Toxoplasma gondii and in the test with Cryptosporidium parvum was inactive. For the same compound, the IC50 in test [1] and in test [2] was more than 3000 nM throughout.

Take `CC(C)(C)Cn1c(N)nc2ccc(C(=O)c3ccccc3)cc21`: the EC50 in “cells” and in the test with HL-60 was more than 30000 nM throughout. Moreover, the result with Toxoplasma gondii and in the test with Cryptosporidium parvum was inactive. The IC50 turned out to be 130 nM in test [1] and 63 nM in test [2].

`O=C(CCCC1CCNCC1)Nc1nc2ccc(C(=O)c3ccccc3)cc2[nH]1`: the EC50 in the test “cells” and in the test with HL-60 was more than 30000 nM each time. Also, the result in the test on Toxoplasma gondii and in the test on Cryptosporidium parvum was inactive. The IC50 in test [1] was found to be 82 nM; in test [2], 18 nM.

Turning to `CN1CCC[C@@H]1Cn1c(N)nc2ccc(C(=O)c3ccccc3)cc21`, the EC50 in the test “cells” and in the test on HL-60 was more than 30000 nM each time. The outcome with Toxoplasma gondii and in the test on Cryptosporidium parvum was inactive. In addition, the IC50 in test [1] was found to be 790 nM; in test [2], 660 nM.

Consider `Nc1nc2ccc(C(=O)c3ccccc3)cc2n1CCc1ccc(F)cc1`, for which the EC50 in the test “cells” and in the test on HL-60 was more than 30000 nM in each case. The outcome with Toxoplasma gondii and in the test on Cryptosporidium parvum was inactive. Also, the results for the IC50 in test [1] and in test [2] were 950 nM and 190 nM, respectively.

A word on the EC50: it is the concentration that produces a half-maximal response. The IC50 is the midpoint of a concentration-inhibition curve. Read a high IC50 as lower potency.

Values taken from ChEMBL document CHEMBL2057208, “Benzoylbenzimidazole-based selective inhibitors targeting Cryptosporidium parvum and Toxoplasma gondii calcium-dependent protein kinase-1” (Bioorg Med Chem Lett, 2012).
